In brackets after ≈: the same amount, converted by molar mass. Read-outs that look alike come from different tables or passages of the source.
How the values were obtained:
[1] = system: E. coli IMD989; test: Antimicrobial microdilution assay (MIC/MBC); assay type: cell-based, Escherichia coli; conditions: Escherichia coli, IMD989; for MIC: 37 °C, 24 h, read-out: MIC; for MBC: subcultivation, 24 h at 37 °C, read-out: MBC
Description: (§1) The bacterial suspension (0.5 Mc Farland) was prepared, and twenty-fold dilutions of these suspensions were mixed in a 1:10 ratio with the corresponding polyphenol dilution (0.0039–1 mg/mL). Microtiter plates were incubated at 37 °C for 24 h. The lowest concentrations without visible growth (under a binocular microscope) were defined as MICs. The bactericidal concentrations (MBCs) were determined by serial subcultivation of 2 μL of the well’s content and further incubation for 24 h at 37 °C. Streptomycin (SigmaAldrich, Darmstadt, Germany) was used as a positive control. The polyphenols were obtained from Extrasynthese, Rhone, France (rutin, isoquercitrin) and SigmaAldrich, Germany (hesperetin, hesperidin, naringenin, naringin, taxifolin, morin, chlorogenic acid, ferulic acid, p-coumaric acid, and gallic acid). The stock compounds were prepared in ethanol (30%), and adequate ethanol concentrations were used as the negative control in the assays. Experiments were done in triplicate.

[2] = system: E. coli IBRS E003; test: Antimicrobial microdilution assay (MIC/MBC); assay type: cell-based, Escherichia coli; conditions: Escherichia coli, IBRSE003; for MIC: 37 °C, 24 h, read-out: MIC; for MBC: subcultivation, 24 h at 37 °C, read-out: MBC
Description: as §1

[3] = system: P. aeruginosa IBRS P001; test: Antimicrobial microdilution assay (MIC/MBC); assay type: cell-based, Pseudomonas aeruginosa; conditions: Pseudomonas aeruginosa, IBRSP001; for MIC: 37 °C, 24 h, read-out: MIC; for MBC: subcultivation, 24 h at 37 °C, read-out: MBC
Description: as §1

[4] = system: P. aeruginosa MMA83; test: Antimicrobial microdilution assay (MIC/MBC); assay type: cell-based, Pseudomonas aeruginosa; conditions: Pseudomonas aeruginosa, MMA83; for MIC: 37 °C, 24 h, read-out: MIC; for MBC: subcultivation, 24 h at 37 °C, read-out: MBC
Description: as §1

[5] = system: HaCaT cells; test: Cytotoxicity in HaCaT cell line (crystal violet assay); assay type: cell-based, human; conditions: for IC50: Homo sapiens, HaCaT, 24 h treatment, crystal violet, read-out: IC50 (compound concentration that inhibited 50% of the cell growth)
Description: For determination of the polyphenols’ cytotoxic effect, a crystal violet assay was used, with modifications. The cytotoxic effect of polyphenols was analyzed on spontaneously immortalized human skin keratinocytes (HaCaT, AddexBio No. T0020001, San Diego, CA, USA) cell lines. […] Cells (1 × 10^4 cells/well) were seeded in a 96-well plate (Sarstedt, Nümbrecht, Germany) 24 h before treatment. […] Cells were incubated with the compounds for 24 h. […] After crystal violet was removed, the plates were washed in a stream of tap water and left to air-dry at room temperature for 24 h. The absorbance was measured in a microplate reader (Multiskan™ FC Microplate Photometer, Thermo Scientific™) at 590 nm. The results were expressed as IC50 value in μg/mL. The criterion used to categorize the cytotoxic activity polyphenols was as follows: […] All analyses were performed in triplicate; each replicate was also quantified three times. Data were expressed as mean standard deviation, where applicable.

[6] = system: K. pneumoniae IT977; test: Antimicrobial microdilution assay (MIC/MBC); assay type: cell-based, Klebsiella pneumoniae; conditions: Klebsiella pneumoniae, IT977; for MIC: read-out: MIC; for MBC: subcultivation, 24 h at 37 °C, read-out: MBC
Description: as §1

[7] = system: K. pneumoniae Ni9; test: Antimicrobial microdilution assay (MIC/MBC); assay type: cell-based, Klebsiella pneumoniae; conditions: Klebsiella pneumoniae, NI9; for MIC: read-out: MIC; for MBC: subcultivation, 24 h at 37 °C, read-out: MBC
Description: as §1

[8] = system: A. xylosoxidans 37F; test: Antimicrobial microdilution assay (MIC/MBC); assay type: cell-based, Achromobacter xylosoxidans; conditions: Achromobacter xylosoxidans, 37F; for MIC: 37 °C, 24 h, read-out: MIC; for MBC: subcultivation, 24 h at 37 °C, read-out: MBC
Description: as §1

[9] = system: S. infantis 1371/1; test: Antimicrobial microdilution assay (MIC/MBC); assay type: cell-based, Salmonella Infantis; conditions: Salmonella enterica, 1371/1; for MIC: 37 °C, 24 h, read-out: MIC; for MBC: subcultivation, 24 h at 37 °C, read-out: MBC
Description: as §1

[10] = system: Methicillin resistant S. aureus IBRS MRSA 011; test: Antimicrobial microdilution assay (MIC/MBC); assay type: cell-based, Staphylococcus aureus
Description: as §1

[11] = system: A. baumannii S2/2; test: Antimicrobial microdilution assay (MIC/MBC); assay type: cell-based, Acinetobacter baumannii; conditions: Acinetobacter baumannii, S2/2; for MIC: 37 °C, 24 h, read-out: MIC; for MBC: subcultivation, 24 h at 37 °C, read-out: MBC
Description: as §1

[12] = system: A. baumannii 6077/12; test: Antimicrobial microdilution assay (MIC/MBC); assay type: cell-based, Acinetobacter baumannii; conditions: Acinetobacter baumannii, 6077/12; for MIC: 37 °C, 24 h, read-out: MIC; for MBC: subcultivation, 24 h at 37 °C, read-out: MBC
Description: as §1

[13] = system: Escherichia coli K-12 MG1655, Salmonella enterica serovar Typhimurium LT2, and Pseudomonas putida ATCC 795; set-up: method as in PMID 18045389; conditions: cited from earlier work
[14] = system: eleven antibiotic resistant strains of bacteria; test: Antimicrobial assay, summary over the examined strains; assay type: cell-based; conditions: summary of Table 1
Description: as §1

[15] = system: P. aeruginosa IBRS P001 biofilm; test: Crystal violet antibiofilm assay (biofilm formation); assay type: cell-based, Pseudomonas aeruginosa; conditions: MIC and sub-MIC, 24 h, crystal violet, Figure 1
Description: After incubation, each well was washed twice with sterile PBS (phosphate-buffered saline, pH 7.4) and fixed with methanol for 10 min. After removal of methanol the plate was air-dried. The biofilm was stained with 0.1% crystal violet (Bio-Merieux, Marcy l’Etoile, France) for 30 min. The plate was washed with water, air dried, and the stain was dissolved with 200 μL of 96% ethanol (Zorka, Sabac, Serbia). The absorbance was read at 620 nm on a Multiskan™ FC microplate photometer (Thermo Scientific™, Waltham, MA, USA). The results are presented as biofilm forming capacity (%) compared to control.

[16] = restated in the discussion for two strains examined
[17] = Staphylococcus aureus, MRSA, 24 h
[18] = Staphylococcus aureus, MRSA, 37 °C, 24 h, read-out: MIC
[19] = Staphylococcus aureus, MRSA, subcultivation, 24 h at 37 °C, read-out: MBC

SMILES	MIC [1]	MBC [1]	MIC [2]	MBC [2]	MIC [3]	MBC [3]	MIC [4]	MBC [4]	IC50 [5]	MIC ([6]; 37 °C, 24 h)	MBC [6]	MIC ([7]; 37 °C, 24 h)	MBC [7]	MIC [8]	MBC [8]	MIC [9]	MBC [9]	MIC [11]	MBC [11]	MIC [12]	other results
O=C(/C=C/c1ccc(O)c(O)c1)O[C@@H]1C[C@](O)(C(=O)O)C[C@@H](O)[C@H]1O [Chlorogenic Acid, chlorogenic acid]	> 1000 µg/mL	> 1000 µg/mL	> 1000 µg/mL	> 1000 µg/mL	500 µg/mL (≈ 1410 µM)	1000 µg/mL (≈ 2820 µM)	1000 µg/mL (≈ 2820 µM)	> 1000 µg/mL	279 ± 8 µg/mL (≈ 787 µM)	> 1000 µg/mL	> 1000 µg/mL	> 1000 µg/mL	> 1000 µg/mL	1000 µg/mL (≈ 2820 µM)	> 1000 µg/mL	> 1000 µg/mL	> 1000 µg/mL	1000 µg/mL (≈ 2820 µM)	> 1000 µg/mL	1000 µg/mL (≈ 2820 µM)	MIC [6, 16]: > 1000 µg/mL; MIC [7, 16]: > 1000 µg/mL; MBC [10, 17]: 1000 µg/mL (≈ 2820 µM); MIC [10, 17]: 500 µg/mL (≈ 1410 µM); MBC [12]: 1000 µg/mL (≈ 2820 µM)
COc1ccc([C@@H]2CC(=O)c3c(O)cc(O)cc3O2)cc1O [Hesperetin, hesperetin]	> 1000 µg/mL	> 1000 µg/mL	> 1000 µg/mL	> 1000 µg/mL	500 µg/mL (≈ 1650 µM)	1000 µg/mL (≈ 3310 µM)	1000 µg/mL (≈ 3310 µM)	1000 µg/mL (≈ 3310 µM)	> 1000 µg/mL	> 1000 µg/mL	> 1000 µg/mL	1000 µg/mL (≈ 3310 µM)	1000 µg/mL (≈ 3310 µM)	1000 µg/mL (≈ 3310 µM)	1000 µg/mL (≈ 3310 µM)	> 1000 µg/mL	> 1000 µg/mL	500 µg/mL (≈ 1650 µM)	500 µg/mL (≈ 1650 µM)	500 µg/mL (≈ 1650 µM)	MIC [13]: ≥ 1 mg/mL; cytotoxicity towards HaCaT, in words [5]: non-cytotoxic properties; MIC towards a range of antibiotic-resistant bacterial strains [14]: ≥ 0.5 mg/mL; reduction of biofilm formation (biomass), in words [15]: significant (****, p < 0.0001) reduction; MIC [10, 18]: 500 µg/mL (≈ 1650 µM); MBC [10, 19]: 1000 µg/mL (≈ 3310 µM); MBC [12]: 500 µg/mL (≈ 1650 µM)
O=C1C[C@@H](c2ccc(O)cc2)Oc2cc(O)cc(O)c21 [Naringenin, naringenin]	1000 µg/mL (≈ 3670 µM)	> 1000 µg/mL	500 µg/mL (≈ 1840 µM)	1000 µg/mL (≈ 3670 µM)	250 µg/mL (≈ 918 µM)	500 µg/mL (≈ 1840 µM)	1000 µg/mL (≈ 3670 µM)	1000 µg/mL (≈ 3670 µM)	528 ± 47 µg/mL (≈ 1940 µM)	1000 µg/mL (≈ 3670 µM)	1000 µg/mL (≈ 3670 µM)	250 µg/mL (≈ 918 µM)	500 µg/mL (≈ 1840 µM)	1000 µg/mL (≈ 3670 µM)	1000 µg/mL (≈ 3670 µM)	> 1000 µg/mL	> 1000 µg/mL	500 µg/mL (≈ 1840 µM)	500 µg/mL (≈ 1840 µM)	500 µg/mL (≈ 1840 µM)	MIC ([10]; 37 °C, 24 h): 250 µg/mL (≈ 918 µM); MIC [10, 18]: 250 µg/mL (≈ 918 µM); MBC [10, 19]: 500 µg/mL (≈ 1840 µM); MBC [12]: 500 µg/mL (≈ 1840 µM)

From PMC8952364, “Polyphenols as Inhibitors of Antibiotic Resistant Bacteria—Mechanisms Underlying Rutin Interference with Bacterial Virulence” (Pharmaceuticals, 2022)
